Test results taken from US12024506B2, “Compounds” (Oxford University Innovation Limited, priority 2018, dated 2024).

Legend:
[1] = system: H358 cells (ATCC CRL-5807); assay: Cell viability assay 1 (CellTiter-Glo), H358 cells; type: cell-based; details: Homo sapiens, NCI-H358, 48 h, first value of the cell, read-out: Cell Viability H358 (concentration that decreases cell viability by 50%)
Experimental: (§1) Cells (A549 ATCC CCL-185) are cultured in Dulbecco's Modified Eagle's Medium plus 10% foetal calf serum and 2 mM L-glutamine at 37° C., 5% CO2. Cells are plated onto white clear bottom 96-well plates (5000 cells/well in 200 μl media) and left to adhere overnight at 37° C., 5% CO2. Next day, test compound (1 μl at 200× concentration in 100% DMSO) is added to give final test compound concentration 1× in 0.5% DMSO. After 48 h of incubation at 37° C., 5% CO2, 20 μl CellTiter-Glo reagent (Promega G7572) is added into each well. Plates are incubated at room temperature with shaking for 30 min and then luminescence is read using a PheraStar plate reader. The concentration of compounds that decrease cell viability by 50% is calculated from dose response curves generated using Dotmatics data analysis software.
In the H358 cell assay, cells (ATCC CRL-5807) are cultured in RPMI-1640 medium plus 10% foetal calf serum and 2 mM L-glutamine at 37° C., 5% CO2.

[2] = system: DLD1 cells (ATCC CCL-221); assay: Cell viability assay 1 (CellTiter-Glo), DLD1 cells; type: cell-based; details: Homo sapiens, DLD-1 cells, 48 h, second value of the cell, read-out: Cell Viability DLD-1 (concentration that decreases cell viability by 50%)
Experimental: as §1
In the DLD1 cell assay, cells (ATCC CCL-221) are cultured in RPMI-1640 medium plus 10% foetal calf serum and 2 mM L-glutamine at 37° C., 5% CO2.

[3] = biological target: T1, GST-human KRas166 (G12V) GPPNHP (Homo sapiens, UniProt P01116, G12V); assay: KRas small-molecule screening by SPR (Biacore T200); type: binding; details: compound 100 uM, 5% DMSO buffer; immobilised GST-KRas166 (G12V) GPPNHP
T1 construct: made in house; host or cells: E. coli C41(DE3)
Summary of the method: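 GST-KRas166 G12V loaded with GPPNHP, captured on anti-GST CM5 chip at 10,000–15,000 RU, GST reference channel. Compounds run at 100 uM in buffer with 100 mM NaCl, 5 mM MgCl2, 5% DMSO, with DMSO solvent correction; Rmax for 1:1 binding taken as 63 RU.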

Compound	IC50 [1] [µM]	IC50 [2] [µM]	SPR Response Units [3] [Response Units]
COc1cccc(-c2cccc3c2OC(CNCc2ccc(OCCN(C)C)cc2)CO3)n1 (centres unmarked) [Example 26, {2-[4-({[8-(6-Methoxy-pyridin-2-yl)-2,3-dihydro-benzo[1,4]dioxin-2-ylmethyl]-amino}-methyl)-phenoxy]-ethyl}-dimethyl-amine]	95	4	53
COc1cccc(-c2cccc3c2OC(CN(Cc2ccc(OCCN(C)C)cc2)Cc2cccnc2)CO3)n1 (centres unmarked) [Example 31, {2-[4-({[8-(6-Methoxy-pyridin-2-yl)-2,3-dihydrobenzo[1,4]dioxin-2-ylmethyl]-pyridin3-ylmethyl-amino}-methyl)-phenoxy]-ethyl}-dimethyl-amine]	18	3	119
COc1cccc(-c2cccc3c2OC(CN(Cc2ccc(OCCN(C)C)cc2)CC2CCOCC2)CO3)n1 (centres unmarked) [Example 32, [2-(4-{[[8-(6-Methoxy-pyridin-2-yl)-2,3-dihydro-benzo[1,4]dioxin-2-ylmethyl]-(tetrahydro-pyran-4-ylmethyl)-amino]-methyl}-phenoxy)-ethyl]-dimethyl-amine]	17	7	85
COc1cccc(-c2cccc3c2OC(CNC(=O)c2ccc(OCCN(C)C)cc2F)CO3)n1 (centres unmarked) [Example 38, 4-(2-Dimethylamino-ethoxy)-2-fluoro-N-[8-(6-methoxy-pyridin-2-yl)-2,3-dihydro-benzo[1,4]dioxin-2-ylmethyl]-benzamide]	58	3.6	335
COc1cccc(-c2cccc3c2OC(CNC(=O)c2ccc(OCCN(C)C)cc2)CO3)n1 (centres unmarked) [Example 39, 4-(2-Dimethylamino-ethoxy)-N-[8-(6-methoxy-pyridin-2-yl)-2,3-dihydro-benzo[1,4]dioxin-2-ylmethyl]-benzamide]	79	5	127
COc1cccc(-c2cccc3c2O[C@H](CNC(=O)c2ccc(OCCN(C)C)cc2)CO3)n1 [Example 40, 4-(2-Dimethylamino-ethoxy)-N-[(R)-8-(6-methoxy-pyridin-2-yl)-2,3-dihydro-benzo[1,4]dioxin-2-ylmethyl]-benzamide]	52	12	58
COc1cccc(-c2cccc3c2O[C@@H](CNC(=O)c2ccc(OCCN(C)C)cc2)CO3)n1 [Example 41, 4-(2-Dimethylamino-ethoxy)-N-[(S)-8-(6-methoxy-pyridin-2-yl)-2,3-dihydrobenzo [1,4]dioxin-2-ylmethyl]-benzamide]	48	20	60
COc1cccc(-c2cccc3c2OC(CNC(=O)c2ccc(CN4CCN(C)CC4)o2)CO3)n1 (centres unmarked) [Example 43, 5-(4-Methyl-piperazin-1-ylmethyl)-furan-2-carboxylic acid [8-(6-methoxy-pyridin-2-yl)-2,3-dihydro-benzo[1,4]dioxin-2-ylmethyl]-amide]	> 100	19	105
COc1cccc(-c2cccc3c2OC(CNC(=O)c2coc(CN4CCOCC4)c2)CO3)n1 (centres unmarked) [Example 46, 5-Morpholin-4-ylmethyl-furan-3-carboxylic acid [8-(6-methoxy-pyridin-2-yl)-2,3-dihydro-benzo[1,4]dioxin-2-ylmethyl]-amide]	> 100	> 100	148
COc1nc(-c2cccc3c2OCCO3)ccc1Nc1cccc(CN(C)C)c1 [Example 55, [6-(2,3-dihydro-benzo[1,4]dioxin-5-yl)-2-methoxy-pyridin-3-yl]-(3-dimethylaminomethyl-phenyl)-amine]	8	9.2	130
COc1nc(-c2cccc3c2OCCO3)ccc1Nc1ccc(CN(C)C)cn1 [Example 57, [6-(2,3-Dihydro-benzo[1,4]dioxin-5-yl)-2-methoxy-pyridin-3-yl]-(5-dimethylaminomethyl-pyridin-2-yl)-amine]	29	20.2	77
COc1nc(-c2cccc3c2OCCO3)ccc1Nc1ccc(Cn2ccnc2)cc1 [Example 58, [6-(2,3-Dihydro-benzo[1,4]dioxin-5-yl)-2-methoxy-pyridin-3-yl]-(4-imidazol-1-ylmethyl-phenyl)-amine]	19	16.2	269
COc1nc(-c2cccc3c2OCCO3)ccc1Nc1cccc(CN2CCCC2)c1 [Example 60, [6-(2,3-Dihydro-benzo[1,4]dioxin-5-yl)-2-methoxy-pyridin-3-yl]-(3-pyrrolidin-1-ylmethyl-phenyl)-amine]	11.4	7.5	108
COc1nc(-c2cccc3c2OCCO3)ccc1Nc1cccc(CN2CCOCC2)c1 [Example 61, [6-(2,3-Dihydro-benzo[1,4]dioxin-5-yl)-2-methoxy-pyridin-3-yl]-(3-morpholin-4-ylmethyl-phenyl)-amine]	20.1	12.2	61
CN(C)Cc1cccc(Nc2ccc(-c3cccc4c3OCCO4)cc2)c1.O=CO [Example 70, [4-(2,3-Dihydro-benzo[1,4]dioxin-5-yl)-phenyl]-(3-dimethylaminomethyl-phenyl)-amine. formate salt]	8.6	10.6	86

More lines, now with the values ahead:

IC50 [1] [µM]	IC50 [2] [µM]	SPR Response Units [3] [Response Units]	Compound
8.6	13.7	72	COc1nc(-c2cccc3c2OCCO3)ccc1Nc1cccc(C2CCC(=O)N2)c1 (centres unmarked) [Example 62, 5-{3-[6-(2,3-Dihydro-benzo[1,4]dioxin-5-yl)-2-methoxy-pyridin-3-ylamino]-phenyl}-pyrrolidin-2-one]
21	21.5	128	COc1nc(-c2cccc3c2O[C@@H](CNC(=O)C2CCOCC2)CO3)ccc1Nc1cccc(CN(C)C)c1 [Example 69]
3.11	6	110	COc1nc(-c2cccc3c2OCCO3)ccc1Nc1cccc([C@H]2CCCN2)c1 [Example 74, [6-(2,3-Dihydro-benzo[1,4]dioxin-5-yl)-2-methoxy-pyridin-3-yl]-((R)-3-pyrrolidin-2-yl-phenyl)-amine]
2.6	4	112	COc1nc(-c2cccc3c2OCCO3)ccc1Nc1cccc([C@@H]2CCCN2)c1 [Example 75, [6-(2,3-Dihydro-benzo[1,4]dioxin-5-yl)-2-methoxy-pyridin-3-yl]-((S)-3-pyrrolidin-2-yl-phenyl)-amine]
18	16.5	47	COc1nc(-c2cccc3c2OCCO3)ccc1Nc1cccc(CNC(=O)c2cccnc2)c1 [Example 79, N-{3-[6-(2,3-Dihydro-benzo[1,4]dioxin-5-yl)-2-methoxy-pyridin-3-ylamino]-benzyl}-nicotinamide]
16.5	13.4	51	COc1nc(-c2cccc3c2OCCO3)ccc1Nc1cccc(CNC(=O)c2ccncc2)c1 [Example 80, N-{3-[6-(2,3-Dihydro-benzo[1,4]dioxin-5-yl)-2-methoxy-pyridin-3-ylamino]-benzyl}-isonicotinamide]
33	20	59	COc1nc(-c2cccc3c2OC(CNC(=O)C2CCOCC2)CO3)ccc1Nc1cccc(CN(C)C)c1 (centres unmarked) [Example 84, Tetrahydro-pyran-4-carboxylic acid {8-[5(3-dimethylamino-methyl-phenylamino)-6-methoxy-pyridin-2-yl]-2,3-dihydro-benzo[1,4]dioxin-2-ylmethyl}-amide]
28	5	97	COc1cc(NC(=O)N[C@@H]2CC[C@H](NC(=O)OCc3ccccc3)C2)cc(-c2cccc3c2OC(CNC(=O)C2CCOCC2)CO3)n1 (stereo partly drawn) [Example 100, ((1S,3R)-3-{3-[2-Methoxy-6-(3-{[(tetrahydro-pyran-4-carbonyl)-amino]-methyl}-2,3-dihydro-benzo[1,4]dioxin-5-yl)-pyridin-4-yl]-ureido}-cyclopentyl)-carbamic acid benzyl ester]
15.5	8.4	–	COc1nc(-c2cccc3c2OCCO3)ccc1Nc1cccc(C(=O)NCc2cn[nH]c2)c1 [Example 183, 3-[6-(2,3-Dihydro-benzo[1,4]dioxin-5-yl)-2-methoxy-pyridin-3-ylamino]-N-(1H-pyrazol-4-ylmethyl)-benzamide]
